Experimental data published in ChEMBL document CHEMBL4811216, “Chemotherapy for human schistosomiasis: how far have we come? What's new? Where do we go from here?” (RSC Med Chem, 2020).

Experiments:
Schistosoma mansoni [1] = assay: Antischistosomal activity against Schistosoma mansoni incubated for 72 hrs by microscopic method; type: functional, organism-based
Schistosoma mansoni [2] = assay: microbe, parasite or virus in culture; details: 72 h
Description: Antischistosomal activity against Schistosoma mansoni incubated for 72 hrs by inverted microscopic method

Schistosoma mansoni [3] = assay: microbe, parasite or virus in culture; details: Liberian, 72 h
Description: Antischistosomal activity against Schistosoma mansoni Liberian NTS incubated for 72 hrs by microscopic method

Schistosoma haematobium = assay: Antischistosomal activity against Schistosoma haematobium at 10 uM measured after 72 hrs relative to control; type: functional
[4] = Cytotoxicity against Biomphalaria alexandrina incubated for 24 hrs relative to control; parameters: concentration or dose not given beside the values
[5] = Cytotoxicity against Biomphalaria alexandrina incubated for 24 hrs
Schistosoma mansoni [6] = assay: Antischistosomal activity against adult Schistosoma mansoni assessed as worm mortality at 10 uM measured up to 72 hrs by microscopic method relative to control; type: functional; details: time hrs <=72
Schistosoma mansoni [7] = assay: Antischistosomal activity against adult Schistosoma mansoni measured up to 72 hrs by microscopic method; type: functional, organism-based
Schistosoma mansoni [8] = assay: Antischistosomal activity against Schistosoma mansoni NTS assessed as worm mortality at 10 uM measured up to 72 hrs by microscopic method relative to control; type: functional; details: time hrs <=72
[9] = target: HDAC1 (histone deacetylase 1) (Homo sapiens, UniProt Q13547); assay: Inhibition of human HDAC1 using Z-Lys(Ac)-AMC as substrate at 1 uM by fluorimetric method relative to control; details: HDAC1 enzyme, probe Z-Lys(Ac)-AMC
Schistosoma mansoni [10] = assay: Antischistosomal activity against Schistosoma mansoni Puerto-Rican assessed as worm mortality incubated for 5 days by stereomicroscopic method; type: functional, organism-based; details: 120 h; for IC90: time 5 day
Schistosoma mansoni [11] = assay: Antischistosomal activity against Schistosoma mansoni Egyptian assessed as worm mortality incubated for 5 days by stereomicroscopic method; type: functional, organism-based; details: 120 h; for IC90: time 5 day
Schistosoma mansoni [12] = assay: Antischistosomal activity against Schistosoma mansoni assessed as worm mortality at 5 ug/ml incubated for 5 days by stereomicroscopic method relative to control; type: functional; details: 120 h, time 5 day

Sequence of HDAC1 (histone deacetylase 1) (Q13547 whole entry): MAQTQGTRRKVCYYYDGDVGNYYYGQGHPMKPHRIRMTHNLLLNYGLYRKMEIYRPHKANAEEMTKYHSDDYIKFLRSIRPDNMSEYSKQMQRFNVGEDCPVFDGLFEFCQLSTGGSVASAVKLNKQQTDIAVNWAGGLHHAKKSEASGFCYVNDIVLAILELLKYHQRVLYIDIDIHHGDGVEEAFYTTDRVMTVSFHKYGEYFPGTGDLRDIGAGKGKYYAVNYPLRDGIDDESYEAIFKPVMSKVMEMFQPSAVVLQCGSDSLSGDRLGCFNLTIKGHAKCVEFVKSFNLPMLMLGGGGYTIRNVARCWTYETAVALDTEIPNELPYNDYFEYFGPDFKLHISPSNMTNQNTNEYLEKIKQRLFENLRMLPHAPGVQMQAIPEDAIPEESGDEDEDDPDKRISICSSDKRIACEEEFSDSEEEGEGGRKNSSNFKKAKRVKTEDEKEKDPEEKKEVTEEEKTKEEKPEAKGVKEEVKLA

SMILES	IC50 (Schistosoma mansoni [1]) [µM]	IC50 (Schistosoma mansoni [7]) [µM]	mortality at 10 µM (Schistosoma mansoni [8]) [%]	further results
O=S(=O)(Nc1cc(C(F)(F)F)cc2nc3cc(Cl)c(Cl)cc3n12)c1ccc(OC(F)(F)F)cc1	0.2	–	–	–
c1ccc(Oc2ccc(-c3cncc(-c4ccc5[nH]ccc5c4)n3)cc2)cc1	–	–	–	IC50 (Schistosoma mansoni [2]): 3.4 µM; IC50 (Schistosoma mansoni [3]): 2.2 µM; Activity (Schistosoma haematobium): 75.4%
Cn1c2nc3ccccc3c-2c(NCCN2CCCC2)c2cc(Cl)ccc21	–	–	–	mortality [4]: 100%; LC50 [5]: 1.74 µM; LC90 [5]: 2.64 µM
CS(=O)(=O)c1ccc(Nc2cc(C(F)(F)F)c(C#N)c3nc4ccccc4n23)cc1	–	0.2	> 70	mortality at 10 µM (Schistosoma mansoni [6]): > 60%
N#Cc1c(C(F)(F)F)cc(NCc2cccc(F)c2)n2c1nc1cc(Cl)c(Cl)cc12	0.2	–	–	–
O=C(NO)c1cccc(C(=O)NOCc2ccccc2)c1	–	–	–	inhibition at 1 µM [9]: < 10%
CNC1CCN(c2cc(-c3ccc(C(F)(F)F)cc3)c(C#N)c3nc4ccccc4n23)C1 (configuration not stated)	–	0.2	> 70	–
FC(F)(F)Oc1ccc(Nc2cc(C(F)(F)F)cc3nc4ccccc4n23)cc1	0.2	–	–	–
CCNCCNc1cc(-c2ccc(C(F)(F)F)cc2)c(C#N)c2nc3cccc(Br)c3n12	–	0.2	> 70	–
CCNCCNc1cc(C2CCCCC2)c(C#N)c2nc3ccccc3n12	–	0.2	> 70	–
CCN(CC)CCCC(C)Nc1c2c3ccccc3nc-2n(C)c2ccc(Cl)cc12 (configuration not stated)	–	–	–	IC50 (Schistosoma mansoni [10]): 15 µM; IC90 (Schistosoma mansoni [10]): 21.7 µM; IC50 (Schistosoma mansoni [11]): 11.7 µM; IC90 (Schistosoma mansoni [11]): 16.8 µM; mortality at 5 µg/mL (Schistosoma mansoni [12]): 100%
N#Cc1c(C(F)(F)F)cc(Nc2ccnc(F)c2)n2c1nc1ccccc12	–	0.2	> 70	mortality at 10 µM (Schistosoma mansoni [6]): > 60%
CCN(CC)CCCC(C)Nc1c2c3ccccc3nc-2n(C)c2cc(Cl)ccc12 (configuration not stated)	–	–	–	IC50 (Schistosoma mansoni [10]): 29.3 µM; IC90 (Schistosoma mansoni [10]): 32.8 µM; IC50 (Schistosoma mansoni [11]): 19.3 µM; IC90 (Schistosoma mansoni [11]): 24.3 µM; mortality at 5 µg/mL (Schistosoma mansoni [12]): 100%
N#Cc1c(C(F)(F)F)cc(Nc2cnccn2)n2c1nc1ccccc12	0.2	0.2	> 70	mortality at 10 µM (Schistosoma mansoni [6]): > 60%
N#Cc1c(C(F)(F)F)cc(Nc2cccc(OC(F)(F)F)c2)n2c1nc1ccccc12	0.2	–	–	–
CN1CCC(Nc2cc(-c3ccc(C(F)(F)F)cc3)c(C#N)c3nc4cc(Cl)c(Cl)cc4n23)CC1	–	0.2	> 70	–
COc1cccc(-n2nnnc2S(C)(=O)=O)c1	–	–	–	IC50 (Schistosoma mansoni [2]): 6.8 µM; IC50 (Schistosoma mansoni [3]): 0.9 µM; Activity (Schistosoma haematobium): 87.7%

SMILES	IC50 (Schistosoma mansoni [1]) [µM]	IC50 (Schistosoma mansoni [7]) [µM]	mortality at 10 µM (Schistosoma mansoni [8]) [%]	further results
CCNCCNc1cc(C2CCCC2)c(C#N)c2nc3ccccc3n12	–	0.2	> 70	–
CCNCCNc1cc(-c2ccc(C(F)(F)F)cc2)c(C#N)c2nc3c(Cl)cc(Cl)cc3n12	–	0.2	> 70	–
N#Cc1c(C(F)(F)F)cc(NCc2ccc(F)cc2)n2c1nc1cc(Cl)c(Cl)cc12	0.2	–	–	–
N#Cc1c(C(F)(F)F)cc(Nc2ccccc2OC(F)(F)F)n2c1nc1ccccc12	0.2	–	–	–
N#Cc1ccc(S(=O)(=O)Nc2cc(C(F)(F)F)cc3nc4cc(Cl)c(Cl)cc4n23)cc1	0.2	–	–	–
Cc1cc(C)cc(CONC(=O)c2cccc(C(=O)NO)c2)c1	–	–	–	inhibition at 1 µM [9]: < 10%
N#Cc1c(C(F)(F)F)cc(NCc2ccccn2)n2c1nc1cc(Cl)c(Cl)cc12	0.2	–	–	–
COc1ncnc(Nc2cc(C(F)(F)F)c(C#N)c3nc4ccccc4n23)c1OC	0.2	0.2	> 70	mortality at 10 µM (Schistosoma mansoni [6]): > 60%
N#Cc1c(-c2ccc(C(F)(F)F)cc2)cc(NC2CCC(N)CC2)n2c1nc1cc(Cl)cc(Cl)c12 (configuration not stated)	–	0.2	> 70	–
Clc1ccc2nc3[nH]c4ccccc4c3c(NCCN3CCOCC3)c2c1	–	–	–	IC50 (Schistosoma mansoni [10]): 7.61 µM; IC90 (Schistosoma mansoni [10]): 11 µM; IC50 (Schistosoma mansoni [11]): 3.41 µM; IC90 (Schistosoma mansoni [11]): 6.3 µM; mortality at 5 µg/mL (Schistosoma mansoni [12]): 100%
Cc1ccc(CNc2cc(C(F)(F)F)c(C#N)c3nc4cc(Cl)c(Cl)cc4n23)cc1	0.2	–	–	–
Nc1nc(NCC2CCC(CNS(=O)(=O)c3ccc4ccccc4c3)CC2)nc2ccccc12 (configuration not stated)	–	–	–	IC50 (Schistosoma mansoni [2]): 2 µM; IC50 (Schistosoma mansoni [3]): 0.6 µM
N#Cc1c(C(F)(F)F)cc(Nc2ccc(OC(F)(F)F)cc2)n2c1nc1cc(Cl)c(Cl)cc12	0.2	–	–	–
O=C(NO)c1cccc(C(=O)NOCCc2ccccc2)c1	–	–	–	inhibition at 1 µM [9]: < 10%
O=C(NO)c1cccc(C(=O)NOCc2ccc(F)c(F)c2)c1	–	–	–	inhibition at 1 µM [9]: < 10%
Cc1ccc(CONC(=O)c2cccc(C(=O)NO)c2)cc1	–	–	–	inhibition at 1 µM [9]: < 10%
N#Cc1c(C(F)(F)F)cc(Nc2ccc(CN3CCOCC3)cc2)n2c1nc1ccccc12	–	0.2	> 70	mortality at 10 µM (Schistosoma mansoni [6]): > 60%
